Here are results for four substances from US5100879A, “Method of topically cleansing the human body” (K.K. Ueno Seiyaku Oyo Kenkyujo, priority 1987, dated 1992).

Data set [1] deals with HTLV-III. As to the kind of experiment: Anti-AIDS activity, infected cell rate of MT-4 cells infected with HTLV-III at the 6th day (Example 9). It counts as cell-based. Particulars: for Infected cell (%): 6th day, control without test substance 100%; for anti-AIDS virus activity, in words: Example 9. The protocol:
(§1) To MT-4 cells (30×10^4 /ml) cultured in RPMI-1640 medium containing 10% bovine serum, was inoculated HTLV-III, and the suspension was incubated at 37° C. for 1 hour to cause the adsorption of the virus. The cell:virus ratio was 500:1. The cells were then washed, and cultured with or without various doses of the test substances (same as those of Example 1) at 37° C. under 5% CO2 for 3 days, after which cell growth, viability, and percentage of infected cells were recorded. The infected cells were distinguished from the uninfected cells by an indirect immuno-fluorescence method. Thus, the cultured cells were fixed with cold methanol on a slide glass, reacted with antibody to the HTLV-III-specific antigens, and further with the secondary antibody (having a fluororescent label). The results are shown in FIGS. 9-29, wherein, .gradient., .increment. and .quadrature. show the controls without virus, and show the infection experiments with HTLV-III. The cell growth is indicated in number of cells, the viability (%) in number of viable cells ×100/number of total cells, and the infected cell rate (%) in number of fluorescent-positive cells x 100/number of total cells.
In order to examine the correlation between the anti-AIDS virus activity and the molecular structure (especially, molecular weight and S-content or number of sulfate group in this case) of various test substances including those used in Examples 1-7, the anti-AIDS activities were evaluated for the various naturally occurring polysaccharides, polysaccharides having a sulfate group, mucopolysaccharides, mucopolysaccharide sulfate, and mucopolysaccharide polysulfate. Further, similar experiments were carried out with various other sulfates which were synthetically obtained. The experimental procedures employed are identical to that in the preceding experiments. The cultured MT-4 cells were infected with HTLV-III and the inhibitory effects of various test substances on the infected cell rate (number of fluorescent cell×100/ total cell, %) were determined at the 6th day.

For data set [2], the system named is reverse transcriptase (authentic sample) derived from Avian Myeloblastosis Virus. As to the kind of experiment: Inhibition of reverse transcriptase activity (AMV), Examples 1 and 5. It is filed as biochemical. Particulars: FIGS. 30-33. The protocol:
Test substances were assayed for inhibition against the enzyme activity of reverse transcriptase (authentic sample) derived from Avian Myeloblastosis Virus (abbrev. AMV), a kind of retrovirus. Five microliters of […] (template RNA), 4 μl of (dT)12-18 (primer DNA), and 1 μl of water were mixed with 5 μl of 0.5M Tris-HCl (pH 8.4) including 0.1% triton X-100, 5 μl of […], 5 μl of 20 […], 5 μl of water, and [^3 H]-TTP (tritium labeled thymidine triphosphate). To this mixture, test substances in solutions (final concentrations: 1, 0.1, and 0.01 μg/ml, 5 μl) or buffer solutions (control, 5 μl) at various doses were added. Then, 5 μl (one unit) of the authentic reverse transcriptase derived from AMV was added and the reaction mixture was incubated at 37° C. for 30 minutes. The reaction was stopped by addition of trichloroacetic acid, and after filtering the reaction mixture, the radioactivity of the polymerized (3H-T)n retained on the filter was measured using a liquid scintilation counter. As the test substances, sodium dextran sulfate (molecular weight: 5000), same (molecular weight: 8000), same (molecular weight: 500000), fucoidin, κ-carrageenan, λ-carrageenan, and .iota.-carrageenan were used.
The effects of the test substances on the reverse transcriptase activity of AMV were evaluated by the method described in Example 1.

The subject of data set [3] is reverse transciptase of simian sarcoma virus. Particulars: Cancer Research, 38, 2401 2407; cited from earlier work.
The test system of another data set is mice. To be noted: cited from earlier work.
Data set [4] concerns DNA polymerase of phytohemagglutinin stimulated human lymphocytes. To be noted: Cancer Research, 38, 2401 2407; cited from earlier work.
The next data set relates to MT-4 cells. As to the kind of experiment: Cytotoxicity, MT-4 cells cultured without virus (Examples 4 and 8). It is filed as cell-based, human. The text has this: The cell:virus ratio was 500:1. […] The infected cells were distinguished from the uninfected cells by an indirect immuno-fluorescence method. Thus, the cultured cells were fixed with cold methanol on a slide glass, reacted with antibody to the HTLV-III-specific antigens, and further with the secondary antibody (having a fluororescent label). […] The cell growth is indicated in number of cells, the viability (%) in number of viable cells ×100/number of total cells, and the infected cell rate (%) in number of fluorescent-positive cells x 100/number of total cells.

For data set [5], the system named is HTLV-III. Put plainly: Anti-AIDS virus activity, MT-4 cells infected with HTLV-III, 3 days (Examples 3, 6, 7). It counts as cell-based. Particulars: increasing dose. The procedure: as §1
Test substances were assayed for the anti-AIDS virus activity in the same manner as in Example 3 using cell culture. […]
The anti-AIDS virus activity of heparin was evaluated in the same manner as in Example 3. […]

For data set [6], the system named is Friend leukemia virus (F-MuLV). As to the kind of experiment: Anti-Friend leukemia virus activity, XC-plaque assay, Procedure 2. To be noted: for Number of plaques per dish: control 35. It is filed as cell-based. The protocol: (§2) Anti-FMuLV activity of dextran sulfate (molecular weight: 7000-8000, S-content: 17-20%) was determined by a XC-plaque assay method. BALB3T3 cells were cultured in adhesive form in a 35 mm-dish at 5×10^4 cells/dish (2 ml). After removing the culture medium, a fresh medium with or without indicated concentrations of the test substance (1 ml each) and 0.2 ml of the virus preparation were charged, and the cells were cultured overnight. On the following day, the culture media were replaced with those (2 ml) containing or not containing the above substances, the incubation was continued for three additional days to progress the infection and replication of the virus. After the removal of the medium, the further progression of viral replication was stopped by UV irradiation. To this dish, the suspension of XC-cells (2 ml) was added and cultured for three days and the plaque formation produced by the virus particle induced cell-fusion, was observed.
Procedure 1 was repeated except that after adsorption of the virus in the medium without DS, the non-adsorbed viruses were removed and the culture was carried out in the medium (2 ml) containing or not containing DS.

Data set [7] concerns Friend leukemia virus (F-MuLV). Put plainly: Anti-Friend leukemia virus activity, XC-plaque assay, Procedure 1. It is filed as cell-based. Particulars: for Number of plaques per dish: control 168. The protocol: as §2
The subject of data set [8] is disrupted HTLV-III virions as a crude reverse transcriptase. As to the kind of experiment: Inhibition of reverse transcriptase activity (HTLV-III), Example 2. It is filed as biochemical. To be noted: FIG. 8.

Like-named read-outs stand apart in the source and are kept apart here. A value given as a limit tells only on which side of the number the result lay.

With Chondroitin polysulfate, the results for the “Infected cell (%)” value in the data set with HTLV-III [1] (10 μg/ml) and in the data set with HTLV-III [1] (100 μg/ml) were 3% and 1%, respectively. The “anti-AIDS virus activity, in words” value with HTLV-III [1] is reported as “particularly strong”. Besides, the “reverse transcriptase inhibitory activity compared with the natural substances” value in [2] is given as “stronger activity”.
On to Heparin, for which the “Infected cell (%)” value with HTLV-III [1] (10 μg/ml) is listed as 41%. Moreover, the “Infected cell (%)” value with HTLV-III [1] (100 μg/ml) is recorded as 1%. Also, the “anti-AIDS virus activity, in words” value in the data set on HTLV-III [1] is on record as “particularly strong”. Further, the “inhibition of reverse transciptase of simian sarcoma virus in vitro” value in data set [3] is on record as “inhibit”. Moreover, the “acute toxicity (LD50)” value in the data set with mice (intravenously) is 1,500-2,000 mg/kg. Also, in [4], the “inhibition of DNA polymerase of phytohemagglutinin stimulated human lymphocytes in vitro” value is “inhibit”. Also, in the data set with MT-4 cells, the “cytotoxicity to MT-4 cells, in words” value was “little cytotoxicity”. In the data set with HTLV-III [5], the “cell growth (number of cells) and viability of MT-4 cells infected with HTLV-III” value was “the number of cells and viability were maintained to that of control”; the “infected cell rate (%) of MT-4 cells infected with HTLV-III, in words” value is given as “less susceptible to the viral infection”.
Regarding Keratan polysulfate, the “Infected cell (%)” value with HTLV-III [1] (10 μg/ml) is recorded as 80%; in the data set on HTLV-III [1] (100 μg/ml), 40%. The “reverse transcriptase inhibitory activity compared with the natural substances” value in [2] was “stronger activity”.
As to “dextran sulfate [Dextran sulfate 7,000-8,000]”, the “Infected cell (%)” value with HTLV-III [1] (10 μg/ml) amounted to 1%; with HTLV-III [1] (100 μg/ml) it was 0%. For the same substance, the “Inhibition (%)” value in data set [6] (Procedure 2, 0.01 μg/ml) was found to be 6%; in [6] (Procedure 2, 0.1 μg/ml), 45%; in [6] (Procedure 2, 10 μg/ml), 52%; in data set [6] (Procedure 2, 100 μg/ml), 54%; in data set [7] (Procedure 1, 1 μg/ml), 92%; in data set [7] (Procedure 1, 5 μg/ml) it was 93%. For the same substance, the “Inhibition (%)” value in data set [7] (Procedure 1, 10 μg/ml) was 93%; in [7] (Procedure 1, 50 μg/ml) it was 92%; in data set [7] (Procedure 1, 100 μg/ml) it was 96%; in data set [7] (Procedure 1, 1000 μg/ml), 100%. For the same substance, the “Number of plaques per dish” value is listed as 33 per dish in [6] (Procedure 2, 0.01 μg/ml); 19 per dish in [6] (Procedure 2, 0.1 μg/ml); 14 per dish in data set [6] (Procedure 2, 1 μg/ml); 17 per dish in [6] (Procedure 2, 10 μg/ml); 16 per dish in [6] (Procedure 2, 100 μg/ml); 0 per dish in data set [6] (Procedure 2, 500 μg/ml). Further, the “Number of plaques per dish” value in [7] (Procedure 1, 1 μg/ml) is 14 per dish; in [7] (Procedure 1, 5 μg/ml), 12 per dish; in [7] (Procedure 1, 10 μg/ml) it was 11 per dish; in [7] (Procedure 1, 50 μg/ml), 13 per dish; in data set [7] (Procedure 1, 100 μg/ml), 6 per dish. Further, the “inhibition of the formation of plaque” value in data set [7] (Procedure 1, concentrations of 1-100 μg/ml) was at least 90%. Also, the results for the “acute toxicity (LD50)” value in the data set with mice (intravenously) and in the data set with mice (orally) were 4,500 mg/kg and 21,000 mg/kg, respectively. The substance also gave a Viability with MT-4 cells (1 μg/ml, without virus, 0 μg/ml gives 87) of 90%. Besides, in data set [8], the “inhibitory effect against the reverse transcriptase derived from HTLV-III” value was “has an inhibitory effect”.
